Measured values published in patent US20240174690A1, “ANNULATED 2-AMINO-3-CYANO THIOPHENES AND DERIVATIVES FOR THE TREATMENT OF CANCER” (BOEHRINGER INGELHEIM INTERNATIONAL GMBH, priority 2021, published 2024).
In brackets after ≈: the same amount, converted by molar mass. Where two headings read alike, the source gives them in different places.

What was measured:
[1] = Solubility measurement (DMSO solution method), McIlvaine buffer pH 4.5 or 6.8; type: physicochemical; details: aqueous buffer, kinetic from dmso stock, DMSO stock diluted to 250 μM, 24 h shaking at ambient temperature
Protocol: The DMSO solution is diluted with an aqueous medium (Mcllvaine buffer with pH=4.5 or 6.8) to a final concentration of 250 μM. After 24 h of shaking at ambient temperature a potentially formed precipitate is removed by filtration. The concentration of the test compound in the filtrate is determined by LC-UV methods by calibrating the signal to the signal of a reference solution with complete dissolution of the test compound in acetonitrile/water (1:1) with known concentration.

[2] = system: NCI-H358 cells; assay: NCI-H358 CTG proliferation assay (120 h) (NSCLC, G12C); type: cell-based, human; details: Homo sapiens
Protocol: NCI-H358 CTG Proliferation Assay (120 h) (NSCLC, G12C)
NCI-H358 cells (ATCC No. CRL-5807) are dispensed into white bottom opaque 96 well plates (Perkin Elmer cat no. 5680) at a density of 2000 cells per well in 100 μL RPMI-1640 ATCC-Formulation (Gibco #A10491)+10% FCS (fetal calf serum) (assay 1) or into black 384-well plates, flat and clear bottom (Greiner, PNr. 781091) at a density of 200 cells per well in 60 μl RPMI-1640 ATCC-Formulation (Gibco #A10491)+10% FCS (fetal calf serum) (assay 2). […] Compounds (10 mM stock in DMSO) are added at logarithmic dose series using the HP Digital Dispenser D300 (Tecan) (assay 1) or the ECHO acoustic liquid handler system (Beckman Coulter) (assay 2), normalizing for added DMSO and including DMSO controls. For the TO time point measurement, untreated cells are analyzed at the time of compound addition. Plates are incubated for 120 h, and cell viability is measured using CellTiter-Glo luminescent cell viability reagent (Promega product code G7570). Viability (stated as percent of control) is defined as relative luminescence units RLU of each well divided by the RLU of cells in DMSO controls. IC50 values are determined from viability measurements by non-linear regression using a four parameter model.

[3] = target: CYP3A4 (Homo sapiens (Human), UniProt P08684); assay: Mechanism based inhibition of CYP3A4 assay (MBI 3A4); type: in vitro ADME; details: hydroxy-midazolam formation after 30 min vs 0 min preincubation, 25 uM, human liver microsomes
Protocol: After preincubation, the incubate is diluted 1:10 and the substrate midazolam is added for the main incubation (15 min). The main incubation is quenched with acetonitrile and the formation of hydroxy-midazolam is quantified via LC/MS-MS. The formation of hydroxy-midazolam from the 30 min preincubation relative to the formation from the 0 min preincubation is used as a readout. Values of less than 100% mean that the substrate midazolam is metabolized to a lower extent upon 30 min preincubation compared to 0 min preincubation. In general low effects upon 30 min preincubation are desired (corresponding to values close to 100%/not different to the values determined with water control).

[4] = system: NCI-H2122 cells; assay: NCI-H2122 CTG proliferation assay (120 h) (NSCLC, G12C); type: cell-based; details: Homo sapiens
Protocol: NCI-H2122 CTG Proliferation Assay (120 h) (NSCLC, G12C)
The CTG assay is designed to measure quantitatively the proliferation of NCI-H2122 cells (ATCC CRL-5985), using the CellTiter Glow Assay Kit (Promega G7571). Cells are grown in RPMI medium (ATCC) supplemented with Fetal Calf Serum (Life Technologies, Gibco BRL, Cat. No. 10270-106). On “day 0” 200 NCI-H2122 cells are seeded in 60 μL RPMI ATCC+10% FCS+Penstrep in a black 384-well plate, flat and clear bottom (Greiner, PNr. 781091). Cells are then incubated in the plates at 37° C. in a CO2 incubator overnight. On day 1, compounds (10 mM stock in DMSO) are added with the ECHO acoustic liquid handler system (Beckman Coulter), including DMSO controls. Plates are incubated for 120 h, and cell viability is measured using CellTiter-Glo luminescent cell viability reagent (Promega product code G7570). Viability (stated as percent of control) is defined as relative luminescence units RLU of each well divided by the RLU of cells in DMSO controls. IC50 values are determined from viability measurements by non-linear regression using a four parameter model.

[5] = system: SAS cells; assay: SAS CTG proliferation assay (120 h) (HNSCC, wt amplified); type: cell-based
Protocol: SAS CTG Proliferation Assay (120 h) (HNSCC, Wt Amplified)
(§1) SAS cells (JCRB0260) are dispensed into 384-well plates, flat and clear bottom (Greiner, PNr. 781091) at a density of 300 cells per well in 60 μL DMEM:F12 (Gibco 31330-038)+10% Fetal Calf Serum (HyClone, PNr.: SH30084.03) and incubated at 37° C. in a CO2 incubator overnight. The next day, compounds (10 mM stock in DMSO) are added with the ECHO acoustic liquid handler system (Beckman Coulter), including DMSO controls. Plates are incubated for 120 h, and cell viability is measured using CellTiter-Glo luminescent cell viability reagent (Promega product code G7570). Viability (stated as percent of control) is defined as relative luminescence units RLU of each well divided by the RLU of cells in DMSO controls. IC50 values are determined from viability measurements by non-linear regression using a four-parameter model.

[6] = system: SK-CO-1 cells; assay: SK-CO-1 CTG proliferation assay (120 h) (CRC, G12V); type: cell-based; details: Homo sapiens; SK-CO-1 cells (CRC, G12V), CTG 120 h
Protocol: SK-CO-1 CTG Proliferation Assay (120 h) (CRC, G12V)
as §1, with “SK-CO-1 cells (ATCC” for “SAS cells (JCRB0260)”, “SK-CO-1 cells (ATCC HTB-39) are dispensed” for “SAS cells (JCRB0260) are dispensed”, “density of 500 cells per” for “density of 300 cells per”, “60 μL EMEM (Sigma M5650)+10% Fetal Calf” for “60 μL DMEM:F12 (Gibco 31330-038)+10% Fetal Calf”

[7] = McIlvaine buffer pH 4.5, read-out: solubility pH 4.5
[8] = McIlvaine buffer pH 6.8, read-out: solubility pH 6.8
[9] = assay 1, CTG, read-out: H358 (assay 1) IC50
[10] = assay 2, CTG, read-out: H358 (assay 2) IC50

Sequence of CYP3A4 (P08684 whole entry): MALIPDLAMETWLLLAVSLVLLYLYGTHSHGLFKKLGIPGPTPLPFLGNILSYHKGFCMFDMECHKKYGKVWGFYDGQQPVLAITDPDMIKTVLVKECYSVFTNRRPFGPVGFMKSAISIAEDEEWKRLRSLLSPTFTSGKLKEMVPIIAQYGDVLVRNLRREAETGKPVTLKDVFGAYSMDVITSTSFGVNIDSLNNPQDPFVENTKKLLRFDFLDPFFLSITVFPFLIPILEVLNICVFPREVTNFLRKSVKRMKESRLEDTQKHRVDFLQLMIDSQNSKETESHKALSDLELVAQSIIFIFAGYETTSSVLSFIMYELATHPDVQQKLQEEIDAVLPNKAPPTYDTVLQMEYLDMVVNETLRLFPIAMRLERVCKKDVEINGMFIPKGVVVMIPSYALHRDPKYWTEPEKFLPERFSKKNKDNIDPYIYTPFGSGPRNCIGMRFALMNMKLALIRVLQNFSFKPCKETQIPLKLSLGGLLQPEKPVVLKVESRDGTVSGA

SMILES	solubility at 24 h [1, 7] [mg/mL]	solubility at 24 h [1, 8] [mg/mL]	IC50 [2, 9] [µM]	IC50 [2, 10] [µM]	MBI 3A4 [3] [%]	IC50 [4] [µM]	IC50 [5] [µM]	IC50 [6] [µM]
C[C@H](Oc1cc(N2CCNC3(CC3)C2)nc(-c2onc3c2CCC[C@@]32CCCc3sc(N)c(C#N)c32)n1)[C@@H]1CCCN1C [I-5]	> 0.138	> 0.123	0.813	0.852	34	2.42	2.04	0.987
C[C@H](Oc1cc(N2C[C@H](C)N[C@@H](C)C2)nc(-c2onc3c2CCC[C@@]32CCCc3sc(N)c(C#N)c32)n1)[C@@H]1CCCN1C [I-6]	> 0.147	> 0.144	0.809		79	3.38	3.44	2.08
C[C@H](Oc1cc(N2C[C@H](C)NC3(CC3)C2)nc(-c2onc3c2CCC[C@@]32CCCc3sc(N)c(C#N)c32)n1)[C@@H]1CCCN1C [I-8]	> 0.146	0.116 (≈ 189 µM)	0.874		25	3.04	0.131	0.532
C[C@H](Oc1cc(N2CCNCC23CCOC3)nc(-c2onc3c2CCC[C@@]32CCCc3sc(N)c(C#N)c32)n1)[C@@H]1CCCN1C (stereo partly drawn) [I-10]	> 0.141	> 0.136		0.2	72			
C[C@H](Oc1cc(N2CC[C@H](N(C)C)C2)nc(-c2onc3c2CCC[C@@]32CCCc3sc(N)c(C#N)c32)n1)[C@@H]1CCCN1C [I-11]	> 0.141	0.112 (≈ 186 µM)		1.98	78	2.56	0.651	0.53
C[C@H](Oc1cc(N2CC[C@H](N(C)C)C2)nc(-c2noc3c2CCC[C@@]32CCCc3sc(N)c(C#N)c32)n1)[C@@H]1CCCN1C [II-49]	> 0.141	0.114 (≈ 189 µM)		1.91	75	2.84	1.19	0.872
C[C@H](Oc1cc(N2CCNC[C@]23CCOC3)nc(-c2noc3c2CCC[C@@]32CCCc3sc(N)c(C#N)c32)n1)[C@@H]1CCCN1C [II-50]	> 0.144	> 0.135		2.71	54	2.68	0.041	0.802
C[C@H](Oc1cc(-n2cc3c(n2)CCNC3)nc(-c2noc3c2CCC[C@@]32CCCc3sc(N)c(C#N)c32)n1)[C@@H]1CCCN1C [II-53]				0.23	80	3.69	1.72	0.566
C[C@H](Oc1cc(N2CCNC3(CC3)C2)nc(-c2noc3c2CCC[C@@]32CCCc3sc(N)c(C#N)c32)n1)[C@@H]1CCCN1C [II-54]	> 0.134	> 0.122	0.298	0.908	31	1.77	0.234	0.464
